According to patent publication US10947289B2, “Glyco-modified atrial natriuretic peptide” (priority 2013, dated 2021):
Read-outs that look alike come from different tables or passages of the source. *1 amine or outer side, *2 acyl side, *3 side chain or, on linkers, in order; H or OH if unused. Where a SMILES comes first, the peptide text is derived from it. Bridges are numbered along the chain shown (N, C = ends). [ ]: non-standard residue; d: D form. X2 = CC(=O)N[C@H]1[C@H](O[C@H]2[C@H](O)[C@@H](NC(C)=O)[C@H](OC[C@H](N[*:1])C(=O)[*:2])O[C@@H]2CO)O[C@H](CO)[C@@H](O[C@@H]2O[C@H](CO[C@H]3O[C@H](CO)[C@@H](O)[C@H](O)[C@@H]3O[C@@H]3O[C@H](CO)[C@@H](O[C@@H]4O[C@H](CO[C@]5(C(=O)O)C[C@H](O)[C@@H](NC(C)=O)[C@H]([C@H](O)[C@H](O)CO)O5)[C@H](O)[C@H](O)[C@H]4O)[C@H](O)[C@H]3NC(C)=O)[C@@H](O)[C@H](O[C@H]3O[C@H](CO)[C@@H](O)[C@H](O)[C@@H]3O[C@@H]3O[C@H](CO)[C@@H](O[C@@H]4O[C@H](CO[C@]5(C(=O)O)C[C@H](O)[C@@H](NC(C)=O)[C@H]([C@H](O)[C@H](O)CO)O5)[C@H](O)[C@H](O)[C@H]4O)[C@H](O)[C@H]3NC(C)=O)[C@@H]2O)[C@@H]1O

Biological target: T1, human GC-A (Homo sapiens, UniProt P16066)
T1 construct: expressed in transfected cells; host or cells: CHO cells
T1 sequence (P16066 33-1061): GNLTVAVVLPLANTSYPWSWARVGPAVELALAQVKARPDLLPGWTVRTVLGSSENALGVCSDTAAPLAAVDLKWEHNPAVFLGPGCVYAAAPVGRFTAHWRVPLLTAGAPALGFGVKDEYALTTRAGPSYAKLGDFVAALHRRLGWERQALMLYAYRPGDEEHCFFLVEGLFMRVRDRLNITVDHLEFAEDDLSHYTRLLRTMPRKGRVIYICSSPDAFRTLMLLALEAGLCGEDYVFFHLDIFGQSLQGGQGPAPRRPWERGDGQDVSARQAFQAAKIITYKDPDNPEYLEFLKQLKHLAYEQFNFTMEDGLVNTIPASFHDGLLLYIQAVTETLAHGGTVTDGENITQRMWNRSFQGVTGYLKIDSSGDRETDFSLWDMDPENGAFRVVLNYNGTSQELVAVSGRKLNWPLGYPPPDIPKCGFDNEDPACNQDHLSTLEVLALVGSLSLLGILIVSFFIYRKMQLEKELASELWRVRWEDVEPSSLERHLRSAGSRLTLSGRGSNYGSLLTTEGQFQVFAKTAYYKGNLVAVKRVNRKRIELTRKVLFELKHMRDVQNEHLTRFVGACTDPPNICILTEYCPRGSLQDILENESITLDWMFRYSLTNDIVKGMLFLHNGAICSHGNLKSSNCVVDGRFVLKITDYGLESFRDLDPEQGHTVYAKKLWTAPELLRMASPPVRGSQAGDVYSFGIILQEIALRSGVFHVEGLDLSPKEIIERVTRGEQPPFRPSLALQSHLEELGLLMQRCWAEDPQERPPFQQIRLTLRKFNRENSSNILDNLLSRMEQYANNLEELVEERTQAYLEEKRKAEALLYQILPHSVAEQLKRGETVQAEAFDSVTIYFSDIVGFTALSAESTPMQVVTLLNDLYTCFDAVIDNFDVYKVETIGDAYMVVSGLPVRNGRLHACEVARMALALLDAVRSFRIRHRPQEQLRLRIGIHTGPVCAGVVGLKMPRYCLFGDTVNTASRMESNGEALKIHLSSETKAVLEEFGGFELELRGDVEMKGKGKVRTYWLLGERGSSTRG
Assay: cGMP elevating activity in CHO/human GC-A cells (Test Example 1)
Assay type: cell-based
Summary of the method: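 cGMP in lysates was read by HTRF after a 15 min peptide exposure of GC-A-expressing CHO cells in a CO2 incubator, following 10 min room-temperature preincubation with 1.6 mM IBMX in KRB. T/C values were normalised between solvent wells (0) and 1 nM ANP wells (1).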

| EC50 (CHO/human GC-A cells, concentration at T/C=0.5, 15 minutes incubation, read-out: EC50) [nM] | Emax (maximum T/C in range 0.01-100 nM, solvent only = 0, 1 nM ANP = 1) | Compound | EC50 [nM] |
| --- | --- | --- | --- |
|  |  | CC[C@H](C)[C@@H]1NC(=O)[C@H](CCCNC(=N)N)NC(=O)[C@H](CC(=O)O)NC(=O)[C@H](CCSC)NC(=O)[C@H](CCCNC(=N)N)NC(=O)CNC(=O)CNC(=O)[C@H](Cc2ccccc2)NC(=O)[C@@H](NC(=O)[C@H](CO)NC(=O)[C@H](CO)NC(=O)[C@H](CCCNC(=N)N)NC(=O)[C@H](CCCNC(=N)N)NC(=O)[C@H](CC(C)C)NC(=O)[C@H](CO)NC(=O)CCOCCOCCOCCOCCNC(=O)[C@H](CCCCNC(=O)CO[C@@H]2O[C@H](CO)[C@@H](O[C@@H]3O[C@H](CO)[C@@H](O[C@@H]4O[C@H](CO[C@H]5O[C@H](CO)[C@@H](O)[C@H](O)[C@@H]5O[C@@H]5O[C@H](CO)[C@@H](O[C@@H]6O[C@H](CO[C@]7(C(=O)O)C[C@H](O)[C@@H](NC(C)=O)[C@H]([C@H](O)[C@H](O)CO)O7)[C@H](O)[C@H](O)[C@H]6O)[C@H](O)[C@H]5NC(C)=O)[C@@H](O)[C@H](O[C@H]5O[C@H](CO)[C@@H](O)[C@H](O)[C@@H]5O[C@@H]5O[C@H](CO)[C@@H](O[C@@H]6O[C@H](CO[C@]7(C(=O)O)C[C@H](O)[C@@H](NC(C)=O)[C@H]([C@H](O)[C@H](O)CO)O7)[C@H](O)[C@H](O)[C@H]6O)[C@H](O)[C@H]5NC(C)=O)[C@@H]4O)[C@H](O)[C@H]3NC(C)=O)[C@H](O)[C@H]2NC(C)=O)NC(=O)CO[C@@H]2O[C@H](CO)[C@@H](O[C@@H]3O[C@H](CO)[C@@H](O[C@@H]4O[C@H](CO[C@H]5O[C@H](CO)[C@@H](O)[C@H](O)[C@@H]5O[C@@H]5O[C@H](CO)[C@@H](O[C@@H]6O[C@H](CO[C@]7(C(=O)O)C[C@H](O)[C@@H](NC(C)=O)[C@H]([C@H](O)[C@H](O)CO)O7)[C@H](O)[C@H](O)[C@H]6O)[C@H](O)[C@H]5NC(C)=O)[C@@H](O)[C@H](O[C@H]5O[C@H](CO)[C@@H](O)[C@H](O)[C@@H]5O[C@@H]5O[C@H](CO)[C@@H](O[C@@H]6O[C@H](CO[C@]7(C(=O)O)C[C@H](O)[C@@H](NC(C)=O)[C@H]([C@H](O)[C@H](O)CO)O7)[C@H](O)[C@H](O)[C@H]6O)[C@H](O)[C@H]5NC(C)=O)[C@@H]4O)[C@H](O)[C@H]3NC(C)=O)[C@H](O)[C@H]2NC(C)=O)CSSC[C@@H](C(=O)N[C@@H](CC(N)=O)C(=O)N[C@@H](CO)C(=O)N[C@@H](Cc2ccccc2)C(=O)N[C@@H](CCCNC(=N)N)C(=O)N[C@@H](Cc2ccc(O)cc2)C(=O)O)NC(=O)CNC(=O)[C@H](CC(C)C)NC(=O)CNC(=O)[C@H](CO)NC(=O)[C@H](CCC(N)=O)NC(=O)[C@H](C)NC(=O)CNC1=O [Compound 2-35, SG-(SG-)Lys-PEG(3)-hANP(1-28)] | 0.31 |
|  |  | CC[C@H](C)[C@@H]1NC(=O)[C@H](CCCNC(=N)N)NC(=O)[C@H](CC(=O)O)NC(=O)[C@H](CCSC)NC(=O)[C@H](CCCNC(=N)N)NC(=O)CNC(=O)CNC(=O)[C@H](Cc2ccccc2)NC(=O)[C@@H](NC(=O)[C@H](CO)NC(=O)[C@H](CO)NC(=O)[C@H](CCCNC(=N)N)NC(=O)[C@H](CCCNC(=N)N)NC(=O)[C@H](CC(C)C)NC(=O)[C@H](CO)NC(=O)CCOCCOCCOCCOCCNC(=O)[C@H](CC(=O)N[C@@H]2O[C@H](CO)[C@@H](O[C@@H]3O[C@H](CO)[C@@H](O[C@@H]4O[C@H](CO[C@H]5O[C@H](CO)[C@@H](O)[C@H](O)[C@@H]5O[C@@H]5O[C@H](CO)[C@@H](O[C@@H]6O[C@H](CO)[C@H](O)[C@H](O)[C@H]6O)[C@H](O)[C@H]5NC(C)=O)[C@@H](O)[C@H](O[C@H]5O[C@H](CO)[C@@H](O)[C@H](O)[C@@H]5O[C@@H]5O[C@H](CO)[C@@H](O[C@@H]6O[C@H](CO)[C@H](O)[C@H](O)[C@H]6O)[C@H](O)[C@H]5NC(C)=O)[C@@H]4O)[C@H](O)[C@H]3NC(C)=O)[C@H](O)[C@H]2NC(C)=O)NC(=O)CO[C@@H]2O[C@H](CO)[C@@H](O[C@@H]3O[C@H](CO)[C@@H](O[C@@H]4O[C@H](CO[C@H]5O[C@H](CO)[C@@H](O)[C@H](O)[C@@H]5O[C@@H]5O[C@H](CO)[C@@H](O[C@@H]6O[C@H](CO)[C@H](O)[C@H](O)[C@H]6O)[C@H](O)[C@H]5NC(C)=O)[C@@H](O)[C@H](O[C@H]5O[C@H](CO)[C@@H](O)[C@H](O)[C@@H]5O[C@@H]5O[C@H](CO)[C@@H](O[C@@H]6O[C@H](CO)[C@H](O)[C@H](O)[C@H]6O)[C@H](O)[C@H]5NC(C)=O)[C@@H]4O)[C@H](O)[C@H]3NC(C)=O)[C@H](O)[C@H]2NC(C)=O)CSSC[C@@H](C(=O)N[C@@H](CC(N)=O)C(=O)N[C@@H](CO)C(=O)N[C@@H](Cc2ccccc2)C(=O)N[C@@H](CCCNC(=N)N)C(=O)N[C@@H](Cc2ccc(O)cc2)C(=O)O)NC(=O)CNC(=O)[C@H](CC(C)C)NC(=O)CNC(=O)[C@H](CO)NC(=O)[C@H](CCC(N)=O)NC(=O)[C@H](C)NC(=O)CNC1=O [Compound 2-21, AG(9)-(AG(9)-)Asn-PEG(3)-hANP(1-28)] | 0.097 |
|  |  | CC[C@H](C)[C@@H]1NC(=O)[C@H](CCCNC(=N)N)NC(=O)[C@H](CC(=O)O)NC(=O)[C@H](CCSC)NC(=O)[C@H](CCCNC(=N)N)NC(=O)CNC(=O)CNC(=O)[C@H](Cc2ccccc2)NC(=O)[C@@H](NC(=O)[C@H](CO)NC(=O)[C@H](CO)NC(=O)[C@H](CCCNC(=N)N)NC(=O)[C@H](CCCNC(=N)N)NC(=O)[C@H](CC(C)C)NC(=O)[C@@H](N)CO[C@@H]2O[C@H](CO)[C@@H](O[C@@H]3O[C@H](CO)[C@@H](O[C@@H]4O[C@H](CO[C@H]5O[C@H](CO)[C@@H](O)[C@H](O)[C@@H]5O[C@@H]5O[C@H](CO)[C@@H](O[C@@H]6O[C@H](CO[C@]7(C(=O)O)C[C@H](O)[C@@H](NC(C)=O)[C@H]([C@H](O)[C@H](O)CO)O7)[C@H](O)[C@H](O)[C@H]6O)[C@H](O)[C@H]5NC(C)=O)[C@@H](O)[C@H](O[C@H]5O[C@H](CO)[C@@H](O)[C@H](O)[C@@H]5O[C@@H]5O[C@H](CO)[C@@H](O[C@@H]6O[C@H](CO[C@]7(C(=O)O)C[C@H](O)[C@@H](NC(C)=O)[C@H]([C@H](O)[C@H](O)CO)O7)[C@H](O)[C@H](O)[C@H]6O)[C@H](O)[C@H]5NC(C)=O)[C@@H]4O)[C@H](O)[C@H]3NC(C)=O)[C@H](O)[C@H]2NC(C)=O)CSSC[C@@H](C(=O)N[C@@H](CC(N)=O)C(=O)N[C@@H](CO)C(=O)N[C@@H](Cc2ccccc2)C(=O)N[C@@H](CCCNC(=N)N)C(=O)N[C@@H](Cc2ccc(O)cc2)C(=O)O)NC(=O)CNC(=O)[C@H](CC(C)C)NC(=O)CNC(=O)[C@H](CO)NC(=O)[C@H](CCC(N)=O)NC(=O)[C@H](C)NC(=O)CNC1=O [Compound 2-5, (SG-)Ser-hANP(2-28)] (H-[X2]LRRSSCFGGRMDRIGAQSGLGCNSFRY-OH; disulfide 7-23) | 0.082 |
| 48 | 0.63 | [(SG2-)Cys-Gly]5-hANP(1-28) [Compound 2-18] |  |
